Data from patent publication US11446352B2, “Compositions and methods for inhibiting tumor-induced immune suppression” (priority 2017, dated 2022).

Tests used:
AB1-HA tumor = settings: CTX treatment at Day 9; cited from earlier work
KB-3-1 cervix carcinoma = settings: cited from earlier work
[1] = preclinical studies; cited from earlier work
[2] = tested on: Hs587T and MDA-MB-453 cell lines; experiment: autophagy, mitochondria content and mitophagy in treated cancer cells; type: cell-based, human; settings: Hs587T and MDA-MB-453 cell lines
Excerpt: (§1) The first bar indicates 100% folding activity of RRL without inhibitor. PR22 indicates the antibody without PR but with RRL and EnnA. PR represents the antibody (PR22) with PR but without RRL. All other samples have PR22, PR, and RRL without (first bar) or with increased concentration of EnnA. FIGS. 1C-1E are line graphs of cell survival versus EnnA concentration (μM) in breast cancer cell lines Hs578T (FIG. 1C), […] (FIG. 1D) and MDA-MB231 (FIG. 1E) upon treatment with EnnA for 48 and 72 h. […] PR alone (PR), antibody (PR22)+RRL, PR+RRL without inhibitor (RRL), PR+RRL with 1 μM 17-AAG (17AAG) PR+RRL with 10 μM BEAU or EnnA. FIGS. 1G-1I are autoradiographs of Western blots of cytosols from various cell lines treated with 17-AAG (1 μM) or EnnA (3 μM) with antibodies against the specified proteins. FIG. 1J is an autoradiograph showing EnnA causes autophagy in Hs578T and MDA-MB453 cell lines. FIGS. 1K-1N are electron microscopy micrographs showing autophagosomes and reduced mitochondria content in Hs578T cells treated with DMSO or EnnA. FIGS. 1O-1P are fluorescence micrographs showing EnnA causing reduced mitochondria content in Hs578T cells. FIGS. 1Q-1BB are fluorescence micrographs showing mitophagy in Hsp578T cells treated with EnnA as indicated by colocalization of the mitochondria marker Cox4 and the autophagy marker LC3BII.

[3] = tested on: Hsp90 chaperoning machine; experiment: progesterone receptor (PR) refolding assay using reticulocyte lysate (RRL); type: biochemical; settings: protein complex analysis; 10 μM EnnA, 1 μM 17-AAG
Excerpt: as §1
A cell-free high-throughput screen (HTS) platform based on the progesterone receptor (PR) using reticulocyte lysate (RRL) as a source of molecular chaperones was used to screen 175 natural products (Patwardhan C A, et al., J Biomol Screen (2014)). This assay captures the physiological steps of PR refolding by the Hsp90 chaperoning machine and measures the recovery of its hormone-binding activities after mild heat treatment. It has the ability to identify inhibitors as well as activators of the core components of the Hsp90 chaperoning machine (i.e., Hsp90, Hsp70, Hsp40, Hsp90/Hsp70 organizing protein (HOP), and p23), including compounds that target chaperone complexes as well as individual proteins.

In the case of O=P1(N(CCCl)CCCl)NCCCO1 (centres unmarked) [CTX, Cyclophosphamide], the cure rate (AB1-HA tumor) is given as 75%.
In the case of CC(C)[C@H]1C(=O)O[C@H](C(C)C)C(=O)N(C)[C@@H](C(C)C)C(=O)O[C@H](C(C)C)C(=O)N(C)[C@@H](C(C)C)C(=O)O[C@H](C(C)C)C(=O)N1C [Enniatin B], the “reduction of tumor growth in combination with sorafenib” value (KB-3-1 cervix carcinoma) is given as “synergizes with sorafenib” and the anti-angiogenic activity [1] is given as “anti-angiogenic activity”.
With C=CCNC1=C2C[C@@H](C)C[C@H](OC)[C@H](O)[C@@H](C)/C=C(\C)[C@H](OC(N)=O)[C@@H](OC)/C=C\C=C(/C)C(=O)NC(=CC1=O)C2=O [17-AAG, reference compound] the “mode of cell death (apoptosis / autophagy)” value [2] was “induces apoptosis” and the “accumulation of Hsp70-rich PR complexes” value [3] was “observed”.
